Where two headings read alike, the source gives them in different places.
Experiments:
[1] = test system: CRYBA; conditions: ARPE-19 cells
Description: (§1) Human retinal pigment epithelial (RPE) cells (ARPE-19) were cultured in DMEM/F12 media supplemented with 10% fetal bovine serum (FBS, Atlanta Biologicals, Norcross, Ga.) plus L-glutamine, penicillin, and streptomycin in an atmosphere of humidified 95% air and 5% CO2 at 37° C. until confluent in single wells of 6-well plates. The cells were initially grown in DMEM/F12 with FBS to reduce the time to reach confluence. Cells were then rinsed and fed with NR-1 media (BioSource, Camarillo, Calif.). NR-1 is a chemically defined tissue culture medium supplemented with EGF, insulin, hydrocortisone, and transferrin. After feeding with NR-1, the confluent cells were cultured for 3 days to stabilize gene expression.
(§2) The OS was not rinsed from the culture; rather, the NR-1 medium was aspirated and TRI Reagent (Sigma, St. Louis, Mo.) was immediately added to lyse the cells and stabilize the RNA at the designated time-points.
(§3) Total cellular RNA was isolated from the cells at time points 0, 1, and 4 hours using TRI reagent as described above using the protocol recommended by the manufacturer. The RNA was cleaned of trace DNA contaminants by treatment with DNA-Free (Ambion, Austin, Tex.) and the concentration was measured by spectrophotometry. The purified RNA was dissolved in DEPC-treated double distilled water at the concentration of 0.2 mg/ml. and stored at −80° C.
(§4) One μg of total cellular RNA was reversed transcribed (RT) in 20 μL of reaction volume using the Reverse Transcription System using the manufacturer's recommended protocol (Promega, Madison, Wis.). The RT product was diluted 1:5 with DNase-free water and quantitative PCR (qPCR) amplification was performed in 50 μl of buffer containing 1×SYBR® Green PCR Master mix (ABI), optimized forward and reverse qPCR primers and 5 μl of the 1:5 diluted RT product. The qPCR reaction was started at a 50° C. hold for 2 minutes, then 95° C. hold for 10 minutes, followed by 40 cycles of 95° C. for 15 seconds, and 60° C. for 1 minute. The reaction was performed using the ABI PRISM® 7700 Sequence Detection System.

[2] = test system: FosL; assay: H2O2-induced FosL transcription in cultured RPE cells, qPCR; assay type: cell-based, human
Description: as §1, with “After feeding with NR-1, the confluent cells were cultured for 3 days to stabilize gene expression.” left out
as §3, with “The purified RNA was dissolved in DEPC-treated double distilled water at the concentration of 0.2 mg/ml. and stored at −80° C.” left out
One μg of total cellular RNA was reversed transcribed (RT) in 20 μL of reaction volume using the Reverse Transcription System using the manufacturer's recommended protocol (Promega, Madison, Wis.). The RT product was diluted 1:5 with DNase-free water and quantitative PCR (qPCR) amplification was performed in 50 μl of buffer containing 1×SYBR® Green PCR Master mix (ABI), optimized forward and reverse qPCR primers and 5 μl of the 1:5 diluted RT product. […]

[3] = test system: ATF3; assay: H2O2-induced ATF3 transcription in cultured RPE cells, qPCR; assay type: cell-based, human; conditions: for Fold change in expression, ATF3, 1-Hr / Fold change in expression, ATF3, 4-Hr: ARPE-19 cells
Description: as §1, §2, §3, §4

[4] = test system: cFos; assay: H2O2-induced c-Fos transcription in cultured RPE cells, qPCR; assay type: cell-based, human; conditions: for Fold change in expression, cFos, 1-Hr / Fold change in expression, cFos, 4-Hr: ARPE-19 cells
Description: as §1, §2, §3, §4

[5] = test system: CRYAA, CRYBB, and CRYGS crystallin genes; assay: H2O2-induced transcription of crystallin genes in cultured RPE cells, qPCR; assay type: cell-based, human; conditions: 100 μM and 500 μM H2O2, 1 and 4 hours
Description: Transcription of the above-identified crystallin genes was quantified at 1 and 4 hours in cells exposed to 100 μM and 500 μM H2O2-induced OS, and compared to controls.

[6] = test system: FosB; conditions: ARPE-19 cells
Description: For OS studies, ARPE19 cells were incubated for 1 hour at 37° C. in conditioned NR-1 media containing 50-500 μM H202. Cells were either not rinsed (1-, 2-, and 4-hour isolations) or rinsed using the Media Rinse 2 method (4-, 8-, and 24-hour isolations). At designated time-points, NR-1 medium was aspirated and the total cellular RNA was immediately isolated in TRI reagent (Sigma). Single wells were used in each plate to minimize any influence of temperature shifts on gene expression. All procedures were performed in a dim red light environment to reduce any influence of light on gene expression. RNA was isolated either before the onset of OS(O-hour control), or at 1, 2, 4, 8, or 24 hours after the start of the 1-hour OS treatment.
Assays of oxidative stress as described above with RPE cells were performed using the “no touch” technique, to determine whether OS-specific responses of FosB gene expression occurred during the first 8 hours after induction of stress. In addition, a dose-response study of FosB gene expression was performed to determine whether the degree of OS could be quantified using this molecular response.
as §1, §2, §3, §4

[7] = test system: JunB; assay: H2O2-induced JunB transcription in cultured RPE cells, qPCR; assay type: cell-based, human; conditions: for Fold change, JunB, 1-Hr / Fold change, JunB, 4-Hr: ARPE-19 cells
Description: as §1, §2, §3, §4

[8] = test system: HO-1; assay: H2O2-induced HO-1 transcription in cultured RPE cells, qPCR; assay type: cell-based, human; conditions: for Fold change, HO-1, 1-Hr / Fold change, HO-1, 4-Hr: ARPE-19 cells
[9] = test system: ARPE-19 cells; conditions: confluent cell culture, MTT

OO [H2O2]
does not induce: Induction of CRYAA, CRYBB, and CRYGS crystallin genes [5]
~3 fold: Increase in ATF3 transcription ([3]; 1 hour after OS)
20 fold: Fold change in expression, FosB, 4-Hr ([6]; 350 μM H2O2, 4 h)
1 fold: Fold change in expression, CRYBA, 1-Hr ([1]; 100 μM H2O2, 1 h) | Fold change in expression, CRYBA, 4-Hr ([1]; 200 μM H2O2, 4 h) | Fold change in expression, cFos, 4-Hr ([4]; 50 μM H2O2, 4 h) | Fold change, JunB, 4-Hr ([7]; 50 μM H2O2, 4 h)
~4 fold: Level of JunB transcriptional activation ([7]; 4 hours, all levels of OS ≧about 100 μM H2O2)
4 fold: Fold change in expression, CRYBA, 1-Hr ([1]; 500 μM H2O2, 1 h) | Fold change in expression, CRYBA, 4-Hr ([1]; 500 μM H2O2, 4 h) | Fold change in expression, cFos, 1-Hr ([4]; 200 μM H2O2, 1 h) | Fold change, JunB, 4-Hr ([7]; 200 μM H2O2, 4 h) | Fold change, JunB, 4-Hr ([7]; 350 μM H2O2, 4 h) | Fold change, JunB, 4-Hr ([7]; 500 μM H2O2, 4 h)
8 fold: Fold change in expression, ATF3, 4-Hr ([3]; 350 μM H2O2, 4 h) | Elevation of c-Fos transcription over controls ([4]; after 4 hours of OS) | Fold change, JunB, 4-Hr ([7]; 100 μM H2O2, 4 h) | Fold change, HO-1, 4-Hr ([8]; 100 μM H2O2, 4 h) | Fold change, HO-1, 4-Hr ([8]; 200 μM H2O2, 4 h)
0 fold: Fold change in expression, CRYBA, 1-Hr ([1]; 50 μM H2O2, 1 h) | Fold change in expression, ATF3, 1-Hr ([3]; 50 μM H2O2, 1 h) | Fold change in expression, ATF3, 4-Hr ([3]; 50 μM H2O2, 4 h) | Fold change in expression, ATF3, 1-Hr ([3]; 100 μM H2O2, 1 h) | Fold change in expression, ATF3, 4-Hr ([3]; 100 μM H2O2, 4 h) | Fold change in expression, cFos, 1-Hr ([4]; 50 μM H2O2, 1 h) | Fold change in expression, cFos, 1-Hr ([4]; 100 μM H2O2, 1 h) | Fold change, JunB, 1-Hr ([7]; 50 μM H2O2, 1 h) | Fold change, JunB, 1-Hr ([7]; 100 μM H2O2, 1 h) | Fold change, JunB, 1-Hr ([7]; 200 μM H2O2, 1 h) | Fold change, JunB, 1-Hr ([7]; 350 μM H2O2, 1 h)
2 fold: Fold change in expression, CRYBA, 1-Hr ([1]; 200 μM H2O2, 1 h) | Increase in FosL transcription ([2]; after 1 hour of OS, 100 μM and 500 μM H2O2) | Fold change in expression, ATF3, 1-Hr ([3]; 200 μM H2O2, 1 h) | Fold change in expression, ATF3, 1-Hr ([3]; 350 μM H2O2, 1 h) | Fold change in expression, cFos, 4-Hr ([4]; 100 μM H2O2, 4 h) | Fold change in expression, FosB, 1-Hr ([6]; 50 μM H2O2, 1 h) | Fold change in expression, FosB, 4-Hr ([6]; 50 μM H2O2, 4 h) | Fold change in expression, FosB, 1-Hr ([6]; 100 μM H2O2, 1 h) | Fold change, HO-1, 1-Hr ([8]; 50 μM H2O2, 1 h) | Fold change, HO-1, 4-Hr ([8]; 50 μM H2O2, 4 h) | Fold change, HO-1, 1-Hr ([8]; 100 μM H2O2, 1 h) | Fold change, HO-1, 1-Hr ([8]; 200 μM H2O2, 1 h) | Fold change, HO-1, 1-Hr ([8]; 350 μM H2O2, 1 h) | Fold change, HO-1, 1-Hr ([8]; 500 μM H2O2, 1 h)
−2 fold: Fold change in expression, CRYBA, 4-Hr ([1]; 50 μM H2O2, 4 h)
3 fold: Fold change in expression, CRYBA, 4-Hr ([1]; 100 μM H2O2, 4 h) | Fold change in expression, CRYBA, 1-Hr ([1]; 350 μM H2O2, 1 h) | Fold change in expression, CRYBA, 4-Hr ([1]; 350 μM H2O2, 4 h) | Increase in FosL transcription compared to controls ([2]; 4 hours after OS, highest OS dose) | Fold change in expression, ATF3, 4-Hr ([3]; 200 μM H2O2, 4 h) | Fold change in expression, ATF3, 1-Hr ([3]; 500 μM H2O2, 1 h) | Fold change in expression, cFos, 4-Hr ([4]; 200 μM H2O2, 4 h) | Fold change, JunB, 1-Hr ([7]; 500 μM H2O2, 1 h)
32 fold: Fold change in expression, cFos, 4-Hr ([4]; 500 μM H2O2, 4 h)
55%: 500 μM H2O2 for up to 4-hours as percent of dose required to induce 10% cell death (LD10) [9]
16 fold: Fold change in expression, cFos, 4-Hr ([4]; 350 μM H2O2, 4 h) | Fold change in expression, FosB, 1-Hr ([6]; 500 μM H2O2, 1 h)
above 50 μM: H2O2 level above which HO-1 threshold response is seen [8]
64 fold: Fold change in expression, FosB, 4-Hr ([6]; 500 μM H2O2, 4 h)
up to 12 fold: Increase in transcription of c-Fos (maximum) ([4]; after 1 hour of OS, 0-500 μM H2O2)
12 fold: Fold change in expression, cFos, 1-Hr ([4]; 500 μM H2O2, 1 h)
6 fold: Fold change in expression, FosB, 4-Hr ([6]; 100 μM H2O2, 4 h) | Fold change in expression, FosB, 1-Hr ([6]; 200 μM H2O2, 1 h) | Fold change in expression, FosB, 4-Hr ([6]; 200 μM H2O2, 4 h) | Fold change in expression, FosB, 1-Hr ([6]; 350 μM H2O2, 1 h) | Fold change, HO-1, 4-Hr ([8]; 350 μM H2O2, 4 h) | Fold change, HO-1, 4-Hr ([8]; 500 μM H2O2, 4 h)
7 fold: Fold change in expression, cFos, 1-Hr ([4]; 350 μM H2O2, 1 h)
